The structures appear in SMILES notation.

The target in experiment [1] is T1, P. falciparum glutathione reductase (PfGR) (Plasmodium falciparum, UniProt Q94655).
T1 construct: gene GR; 2 x 55 kD homodimer with FAD
Briefly: GSH-mediated DTNB reduction at […] nm, Cleland plot. The class given is biochemical.

The target in experiment [2] is T1, P. falciparum glutathione reductase (PfGR). Briefly: NADPH oxidation at […] nm, Cleland plot ([…]/kcat vs [I]). In kind it is biochemical.

T1 sequence (Q94655 2-500): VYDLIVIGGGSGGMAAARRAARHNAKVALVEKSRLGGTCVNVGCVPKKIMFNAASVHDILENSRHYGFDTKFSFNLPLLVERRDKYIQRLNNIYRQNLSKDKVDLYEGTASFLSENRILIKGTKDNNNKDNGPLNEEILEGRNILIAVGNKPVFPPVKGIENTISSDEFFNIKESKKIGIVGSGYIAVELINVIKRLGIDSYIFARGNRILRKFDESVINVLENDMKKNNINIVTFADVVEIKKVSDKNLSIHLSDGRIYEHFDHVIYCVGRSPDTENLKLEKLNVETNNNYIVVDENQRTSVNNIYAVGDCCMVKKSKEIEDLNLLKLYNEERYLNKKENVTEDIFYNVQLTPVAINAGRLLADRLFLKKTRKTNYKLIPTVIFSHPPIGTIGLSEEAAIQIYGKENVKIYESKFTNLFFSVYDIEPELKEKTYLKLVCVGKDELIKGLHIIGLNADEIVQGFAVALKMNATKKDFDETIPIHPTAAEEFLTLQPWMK

A word on the Ki: it is the equilibrium dissociation constant of an inhibitor or competing ligand from its target. With `NC(=O)c1cc(N2CC2)c([N+](=O)[O-])cc1[N+](=O)[O-]` [compound 3, 5-(Aziridin-1-yl)-2,4-dinitrobenzamide], the Ki in experiment [1] came to 350 ± 40 µM.
Regarding `O=Cc1ccc([N+](=O)[O-])cc1` [compound 7, 4-Nitrobenzaldehyde], the Ki in experiment [2] is 25 ± 4 µM.
Still for that read-out and setting: in the case of `O=[N+]([O-])c1ccc(/C=N/O)o1` [compound 11, Nifuroxime] it was 32 ± 5 µM.
Still for that read-out and setting: in the case of `CC(=O)c1ccc([N+](=O)[O-])cc1` [compound 4, 4-Nitroacetophenone] it was 70 ± 11 µM.
Same read-out and setting: in the case of `O=C1CN(/N=C/c2ccc([N+](=O)[O-])o2)C(=O)N1` [compound 10, Nitrofurantoin] it was 9 ± 1 µM.
For the compound `O=C(O)c1ccc([N+](=O)[O-])cc1` [compound 2, 4-Nitrobenzoic acid], the Ki in experiment [2] is 1200 ± 180 µM.
